ChEMBL document CHEMBL3885861, “Open TG-GATES”

Species: Rattus norvegicus
Experiment: Open TG-GATES - Regimen: Daily Repeat
Assay type: toxicity, organism-based, Sprague-Dawley
Set-up: regimen Daily Repeat, gender Male, age 6 weeks
Settings: in vivo, po, 0 mg/kg, route gavage, dose level Control; for APTT / Bas / Eos / Fbg / Hb / Ht / Lym / MCH / MCHC / MCV / Mono / Neu / PT / Plat / RBC / Ret / WBC: tissue Blood; for KIDNEY_L / KIDNEY_R / KIDNEY_TOTAL: tissue Kidney; for LIVER: tissue Liver; for A/G / ALP / ALT / AST / BUN / CRE / Ca / Cl / DBIL / GLC / IP / K / LDH / Na / PL / RALB / TBIL / TC / TG / TP / gamma-GTP: tissue Plasma

Compound: CCN1CCCC1CNC(=O)c1cc(S(N)(=O)=O)ccc1OC (configuration not stated) [SULPIRIDE]
- TERMINAL_BW (72 h, time 3 day): 237.8 g
- APTT (72 h, time 3 day): 16.8 s
- Bas (72 h, time 3 day): 0%
- Eos (72 h, time 3 day): 1%
- Fbg (72 h, time 3 day): 286.8 mg/dL
- Hb (72 h, time 3 day): 13.4 g/dL
- Ht (72 h, time 3 day): 41.1%
- Lym (72 h, time 3 day): 81.6%
- MCH (72 h, time 3 day): 20.7 pg
- MCHC (72 h, time 3 day): 32.7%
- MCV (72 h, time 3 day): 63.2 fL
- Mono (72 h, time 3 day): 2.8%
- Neu (72 h, time 3 day): 14%
- PT (72 h, time 3 day): 12.9 s
- Plat (72 h, time 3 day): 117.1 x10_4/uL
- RBC (72 h, time 3 day): 650.4 x10_4/ul
- Ret (72 h, time 3 day): 6.9%
- WBC (72 h, time 3 day): 82.7 x10_2/uL
- KIDNEY_L (72 h, time 3 day): 1.1 g
- KIDNEY_R (72 h, time 3 day): 1 g
- KIDNEY_TOTAL (72 h, time 3 day): 2.1 g
- LIVER (72 h, time 3 day): 11.3 g
- A/G (72 h, time 3 day): 0.9
- ALP (72 h, time 3 day): 1602.4 IU/L
- ALT (72 h, time 3 day): 44.8 IU/L
- AST (72 h, time 3 day): 67.2 IU/L
- BUN (72 h, time 3 day): 15.8 mg/dL
- CRE (72 h, time 3 day): 0.2 mg/dL
- Ca (72 h, time 3 day): 11.1 mg/dL
- Cl (72 h, time 3 day): 104.4 meq/L
- DBIL (72 h, time 3 day): 0.012 mg/dL
- GLC (72 h, time 3 day): 188.8 mg/dL
- IP (72 h, time 3 day): 7.3 mg/dL
- K (72 h, time 3 day): 4.3 meq/L
- LDH (72 h, time 3 day): 73.8 IU/L
- Na (72 h, time 3 day): 140.2 meq/L
- PL (72 h, time 3 day): 153.2 mg/dL
- RALB (72 h, time 3 day): 2.7 g/dL
- TBIL (72 h, time 3 day): 0.054 mg/dL
- TC (72 h, time 3 day): 79.6 mg/dL
- TG (72 h, time 3 day): 108.6 mg/dL
- TP (72 h, time 3 day): 5.7 g/dL
- gamma-GTP (72 h, time 3 day): 1 IU/L
- TERMINAL_BW ([…], time 7 day): 264.7 g
- TERMINAL_BW ([…], time 14 day): 315.8 g
- TERMINAL_BW ([…], time 28 day): 375.6 g
- APTT ([…], time 7 day): 16.6 s
- Bas ([…], time 7 day): 0.4%
- Eos ([…], time 7 day): 1%
- Fbg ([…], time 7 day): 286.6 mg/dL
- Hb ([…], time 7 day): 13.9 g/dL
- Ht ([…], time 7 day): 42%
- Lym ([…], time 7 day): 82%
- MCH ([…], time 7 day): 20.7 pg
- MCHC ([…], time 7 day): 33.2%
- MCV ([…], time 7 day): 62.5 fL
- Mono ([…], time 7 day): 2.4%
- Neu ([…], time 7 day): 14%
- PT ([…], time 7 day): 12.8 s
- Plat ([…], time 7 day): 131 x10_4/uL
- RBC ([…], time 7 day): 672.6 x10_4/ul
- Ret ([…], time 7 day): 5.3%
- WBC ([…], time 7 day): 110.2 x10_2/uL
- APTT ([…], time 14 day): 17.2 s
- Bas ([…], time 14 day): 0.4%
- Eos ([…], time 14 day): 0.8%
- Fbg ([…], time 14 day): 289 mg/dL
- Hb ([…], time 14 day): 14.6 g/dL
- Ht ([…], time 14 day): 43.8%
- Lym ([…], time 14 day): 77.4%
- MCH ([…], time 14 day): 20 pg
- MCHC ([…], time 14 day): 33.3%
- MCV ([…], time 14 day): 60 fL
- Mono ([…], time 14 day): 2.4%
- Neu ([…], time 14 day): 18.6%
- PT ([…], time 14 day): 13 s
- Plat ([…], time 14 day): 112.7 x10_4/uL
- RBC ([…], time 14 day): 731.4 x10_4/ul
- Ret ([…], time 14 day): 3.9%
- WBC ([…], time 14 day): 115 x10_2/uL
- APTT ([…], time 28 day): 19.6 s
- Bas ([…], time 28 day): 0%
- Eos ([…], time 28 day): 1.2%
- Fbg ([…], time 28 day): 286.6 mg/dL
- Hb ([…], time 28 day): 15.8 g/dL
- Ht ([…], time 28 day): 46%
- Lym ([…], time 28 day): 77.4%
- MCH ([…], time 28 day): 19.1 pg
- MCHC ([…], time 28 day): 34.3%
- MCV ([…], time 28 day): 55.6 fL
- Mono ([…], time 28 day): 1.8%
- Neu ([…], time 28 day): 19%
- PT ([…], time 28 day): 12.9 s
- Plat ([…], time 28 day): 119.5 x10_4/uL
- RBC ([…], time 28 day): 827.2 x10_4/ul
- Ret ([…], time 28 day): 2.4%
- WBC ([…], time 28 day): 106.9 x10_2/uL
- KIDNEY_L ([…], time 7 day): 1.1 g
- KIDNEY_R ([…], time 7 day): 1.1 g
- KIDNEY_TOTAL ([…], time 7 day): 2.2 g
- KIDNEY_L ([…], time 14 day): 1.2 g
- KIDNEY_R ([…], time 14 day): 1.2 g
- KIDNEY_TOTAL ([…], time 14 day): 2.4 g
- KIDNEY_L ([…], time 28 day): 1.2 g
- KIDNEY_R ([…], time 28 day): 1.2 g
- KIDNEY_TOTAL ([…], time 28 day): 2.5 g
- LIVER ([…], time 7 day): 12.3 g
- LIVER ([…], time 14 day): 13.1 g
- LIVER ([…], time 28 day): 14.3 g
- A/G ([…], time 7 day): 0.9
- ALP ([…], time 7 day): 1380.6 IU/L
- ALT ([…], time 7 day): 44.2 IU/L
- AST ([…], time 7 day): 64.8 IU/L
- BUN ([…], time 7 day): 16 mg/dL
- CRE ([…], time 7 day): 0.2 mg/dL
- Ca ([…], time 7 day): 10.8 mg/dL
- Cl ([…], time 7 day): 104.4 meq/L
- DBIL ([…], time 7 day): 0.016 mg/dL
- GLC ([…], time 7 day): 181.6 mg/dL
- IP ([…], time 7 day): 7.7 mg/dL
- K ([…], time 7 day): 4.5 meq/L
- LDH ([…], time 7 day): 64.4 IU/L
- Na ([…], time 7 day): 141.2 meq/L
- PL ([…], time 7 day): 152.8 mg/dL
- RALB ([…], time 7 day): 2.6 g/dL
- TBIL ([…], time 7 day): 0.052 mg/dL
- TC ([…], time 7 day): 76.8 mg/dL
- TG ([…], time 7 day): 118 mg/dL
- TP ([…], time 7 day): 5.5 g/dL
- gamma-GTP ([…], time 7 day): 1 IU/L
- A/G ([…], time 14 day): 0.8
- ALP ([…], time 14 day): 1582.6 IU/L
- ALT ([…], time 14 day): 38.8 IU/L
- AST ([…], time 14 day): 68.8 IU/L
- BUN ([…], time 14 day): 17 mg/dL
- CRE ([…], time 14 day): 0.2 mg/dL
- Ca ([…], time 14 day): 11 mg/dL
- Cl ([…], time 14 day): 103.2 meq/L
- DBIL ([…], time 14 day): 0.012 mg/dL
- GLC ([…], time 14 day): 193.8 mg/dL
- IP ([…], time 14 day): 7.4 mg/dL
- K ([…], time 14 day): 3.7 meq/L
- LDH ([…], time 14 day): 67 IU/L
- Na ([…], time 14 day): 141.2 meq/L
- PL ([…], time 14 day): 146.2 mg/dL
- RALB ([…], time 14 day): 2.6 g/dL
- TBIL ([…], time 14 day): 0.056 mg/dL
- TC ([…], time 14 day): 68.2 mg/dL
- TG ([…], time 14 day): 133.4 mg/dL
- TP ([…], time 14 day): 5.8 g/dL
- gamma-GTP ([…], time 14 day): 1 IU/L
- A/G ([…], time 28 day): 0.8
- ALP ([…], time 28 day): 975.6 IU/L
- ALT ([…], time 28 day): 38.2 IU/L
- AST ([…], time 28 day): 63.8 IU/L
- BUN ([…], time 28 day): 17.2 mg/dL
- CRE ([…], time 28 day): 0.3 mg/dL
- Ca ([…], time 28 day): 10.5 mg/dL
- Cl ([…], time 28 day): 104.8 meq/L
- DBIL ([…], time 28 day): 0.012 mg/dL
- GLC ([…], time 28 day): 169.2 mg/dL
- IP ([…], time 28 day): 6.8 mg/dL
- K ([…], time 28 day): 3.7 meq/L
- LDH ([…], time 28 day): 61.8 IU/L
- Na ([…], time 28 day): 143.6 meq/L
- PL ([…], time 28 day): 147 mg/dL
- RALB ([…], time 28 day): 2.8 g/dL
- TBIL ([…], time 28 day): 0.062 mg/dL
- TC ([…], time 28 day): 66.4 mg/dL
- TG ([…], time 28 day): 167 mg/dL
- TP ([…], time 28 day): 6.1 g/dL
- gamma-GTP ([…], time 28 day): 1 IU/L
